Patent US9669003B2, “Use of flavone and flavanone derivatives in preparation of sedative and hypnotic drugs” (priority 2012, dated 2017)
Marks after values point to notes of the source that are not given here.

Experiments:
Format in all cases: in vivo
Kunming mice [1] = experiment: Influence on autonomic activity of normal mice (ZIL-2 mice autonomic activity meter, counts within 10 min); settings: intragastric, x ± s; for Times of activities in 1 h after drug administration/10 min: 1 h after administration; for Times of activities in 2 h after drug administration/10 min: 2 h after administration; for Times of activities in 24 h after drug administration/10 min: 24 h after administration
How it was run: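 Activity counts during a 10-min window were taken at 1, 2 and 24 h after dosing in groups of 10 mixed-sex Kunming mice. Compounds were given in 0.5% CMC-Na at 25, 50 or 100 mg/kg. Statistics used Levene's homogeneity test, ANOVA and Dunnett's multiple comparisons.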

Kunming mice [2] = experiment: Influence on hypnosis effect with pentobarbital sodium doses below the threshold (25 mg/kg i.p.); settings: pentobarbital sodium 25 mg/kg i.p. 60 min later, sleep observed in 30 min, n = 10
How it was run: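 Percentage of mice sleeping within 30 min after subthreshold pentobarbital sodium (25 mg/kg i.p.), defined by loss of righting reflex over 1 min, analysed by χ2. Compound in 0.5% CMC-Na given intragastrically at 25/50/100 mg/kg 60 min before; groups of 10 Kunming mice, both sexes.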

Kunming mice [3] = experiment: Influence on hypnosis effect with pentobarbital sodium doses at the threshold (50 mg/kg i.p.); settings: pentobarbital sodium 50 mg/kg i.p. 60 min later, x ± s, n = 10
How it was run: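 Pentobarbital sodium (0.3%, 50 mg/kg i.p.) injected 60 min after a single intragastric dose (25, 50, 100 mg/kg, 0.5% CMC-Na vehicle) in Kunming mice, 10 per group, sexes balanced. Onset and length of sleep (righting reflex lost over 1 min) analysed by ANOVA; sleeping incidence by χ2 test.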

[4] = test drug 25 mg/kg intragastric single dose
[5] = test drug 50 mg/kg intragastric single dose
[6] = test drug 100 mg/kg intragastric single dose
[7] = 25 mg/kg intragastric single dose
[8] = 50 mg/kg intragastric single dose
[9] = 100 mg/kg intragastric single dose

SMILES	Times of activities in 1 h after drug administration/10 min (Kunming mice [1]; 25 mg/kg, n = 10, 25 mg/kg)	Times of activities in 2 h after drug administration/10 min (Kunming mice [1]; 25 mg/kg, n = 10, 25 mg/kg)	Times of activities in 24 h after drug administration/10 min (Kunming mice [1]; 25 mg/kg, n = 10, 25 mg/kg)	Times of activities in 1 h after drug administration/10 min (Kunming mice [1]; 50 mg/kg, n = 10, 50 mg/kg)	Times of activities in 2 h after drug administration/10 min (Kunming mice [1]; 50 mg/kg, n = 10, 50 mg/kg)	Times of activities in 24 h after drug administration/10 min (Kunming mice [1]; 50 mg/kg, n = 10, 50 mg/kg)	Times of activities in 1 h after drug administration/10 min (Kunming mice [1]; 100 mg/kg, n = 10, 100 mg/kg)	Times of activities in 2 h after drug administration/10 min (Kunming mice [1]; 100 mg/kg, n = 10, 100 mg/kg)	Number of sleeping animals (Kunming mice [2]; [4])	rate of sleeping (%) (Kunming mice [2]; [4])	Number of sleeping animals (Kunming mice [2]; [5])	rate of sleeping (%) (Kunming mice [2]; [5])	Number of sleeping animals (Kunming mice [2]; [6])	rate of sleeping (%) (Kunming mice [2]; [6])	duration of sleep (Kunming mice [3]; [7])	time to sleep (Kunming mice [3]; [7])	duration of sleep (Kunming mice [3]; [8])	time to sleep (Kunming mice [3]; [8])	duration of sleep (Kunming mice [3]; [9])	time to sleep (Kunming mice [3]; [9])	also measured
COc1ccc(C2CC(=O)c3c(O)c(OC)c(OC)c(OC)c3O2)cc1OC (stereo not drawn) [Example 64, 5-hydroxyl-6,7,8,3′,4′-penta methoxyl-flavanone]	323.9 ± 45.4 /10 min	310.9 ± 55.9 /10 min	331.3 ± 94.5 /10 min	283.8 ± 60.4 /10 min	269.7 ± 44.6 /10 min	313.6 ± 93.1 /10 min	239.4 ± 35.6 /10 min	248.2 ± 44.7 /10 min	4	40* %	7	70** %	8	80*** %	24.78 ± 24.51 min	5.87 ± 2.32 min	48.23 ± 24.48 min	4.32 ± 1.29 min	53.43 ± 21.81 min	3.87 ± 2.43 min	Times of activities in 24 h after drug administration/10 min (Kunming mice [1]; 100 mg/kg, n = 10, 100 mg/kg): 300.1 ± 81.3 /10 min
COc1cc(OC)c2c(=O)cc(-c3ccc(OC)c(OC)c3)oc2c1 [Example 7, 5,7,3′,4′-tetramethoxyl-flavone]	248.5 ± 55.1 /10 min	234.1 ± 45.8 /10 min	303.4 ± 75.8 /10 min	184.7 ± 52.6 /10 min	164.4 ± 45.8 /10 min	318.5 ± 83.6 /10 min	125.2 ± 44.5 /10 min	122.2 ± 48.6 /10 min	5	50** %	6	60** %	9	90*** %	61.21 ± 22.82 min	3.25 ± 1.93 min	79.27 ± 21.17 min	3.03 ± 1.41 min	87.43 ± 21.56 min	2.32 ± 1.21 min	Times of activities in 24 h after drug administration/10 min (Kunming mice [1]; 100 mg/kg, n = 10, 100 mg/kg): 329.8 ± 53.2 /10 min
CCCCCc1cc(-c2cc(=O)c3c(CC)cc(CCCCCCl)cc3o2)cc(O)c1Cc1ccccc1 [Example 19]	–	–	–	–	–	–	–	–	3	30%	6	60** %	7	70** %	30.63 ± 20.25 min	4.95 ± 2.00 min	37.67 ± 13.45 min	4.57 ± 1.65 min	52.65 ± 20.15 min	3.94 ± 1.23 min	Times of activities in 1 h after drug administration/10 min (Kunming mice [1]; 25 mg/kg, n = 10): 282.2 ± 46.5 /10 min; Times of activities in 2 h after drug administration/10 min (Kunming mice [1]; 25 mg/kg, n = 10): 265.0 ± 45.3 /10 min; Times of activities in 24 h after drug administration/10 min (Kunming mice [1]; 25 mg/kg, n = 10): 302.8 ± 83.2 /10 min; Times of activities in 1 h after drug administration/10 min (Kunming mice [1]; 50 mg/kg, n = 10): 234.7 ± 40.1 /10 min; Times of activities in 2 h after drug administration/10 min (Kunming mice [1]; 50 mg/kg, n = 10): 243.5 ± 48.3 /10 min; Times of activities in 24 h after drug administration/10 min (Kunming mice [1]; 50 mg/kg, n = 10): 306.2 ± 81.3 /10 min; Times of activities in 1 h after drug administration/10 min (Kunming mice [1]; 100 mg/kg, n = 10): 229.6 ± 34.8 /10 min; Times of activities in 2 h after drug administration/10 min (Kunming mice [1]; 100 mg/kg, n = 10): 172.5 ± 39.2 /10 min; Times of activities in 24 h after drug administration/10 min (Kunming mice [1]; 100 mg/kg, n = 10): 287.8 ± 89.1 /10 min
